A value given as a limit tells only on which side of the number the result lay.

In experiment [1] the test system is μ-opioid receptor expression. Conditions: spinal cord and dorsal root ganglia (DRG); cited from earlier work.
The test system of experiment [2] is Walker 256 tumor-bearing rats. Conditions: cited from earlier work.
For another experiment, the system named is keratinocytes. Conditions: cited from earlier work.
Experiment [3] has as its system paclitaxel-induced cold allodynia. The experiment is described as follows: Paclitaxel-induced cold allodynia (acetone). It counts as in vivo, mouse. How it is done: (§1) In all studies, the experimenter was blinded to the treatment condition, and mice were randomly assigned to experimental conditions. Paclitaxel (4 mg/kg i.p.) was administered four times on alternate days (cumulative dose, 16 mg/kg i.p.) to induce neuropathic pain as described previously by our group (Deng et al., 2015). Control mice received an equal volume of cremophor-vehicle. Development of paclitaxel-induced allodynia was assessed on day 0, 4, 7, 11, and 14.
(§2) Effects of pharmacologic manipulations were assessed at 30 minutes after drug administration during the maintenance phase of paclitaxel-induced neuropathy (i.e., beginning day 18-20 after initial paclitaxel injection).
(§3) In experiments 2 and 3, pharmacologic manipulations were performed once daily for 12 consecutive days in each of the two phases of chronic treatment. Four days separated phase 1 and phase 2 chronic dosing in all studies comprising two phases of chronic dosing. Experiments 2 and 3 were performed concurrently using overlapping cohorts that were tested with a single vehicle (phase 1), vehicle (phase 2) group.
(§4) We then assessed the antiallodynic efficacy of chronic systemic administration of vehicle or morphine (10 mg/kg per day i.p.×12 days) administered during phase 2 in the same animals. Responsiveness to mechanical and cold stimulation was evaluated on treatment days 1, 4, 8, and 12 during phase 1 and on treatment days 16, 19, 23, and 27 during phase 2 (i.e., phase 2 started on day 16).
(§5) In experiment 4, we evaluated the impact of coadministration of morphine (10 mg/kg i.p.×12 days) with a submaximal dose of LY 2828360 (0.1 mg/kg per day i.p.×12 days) in WT and CB2 KO mice.
Response time (seconds) spent attending to (i.e., elevating, licking, biting, or shaking) the paw stimulated with acetone (Sigma-Aldrich) was measured in triplicate for each paw to assess cold allodynia as previously published. An acetone bubble (approximately 5 to 6 p.1) formed at the end of a blunt 1-ml syringe hub was gently applied to the plantar surface of the hind paw. Care was taken not to apply mechanical stimulation to the hind paw with the syringe itself. The total time the animal spent attending to the acetone-stimulated paw (i.e., elevation, shaking, or licking) was recorded over 1 minute after acetone application. Acetone was applied three times to each paw with a 3-minute interval between applications. Values for each animal were calculated as the mean of six determinations of acetone responsiveness derived from each mouse.

The target in another experiment is T1, mouse CB2 receptors (Mus musculus, UniProt P47936).
T1 construct: expressed in transfected cells
The experiment is described as follows: Forskolin-stimulated cAMP accumulation (cyclase), HEK mCB2. It counts as cell-based. A general note: cAMP levels reflect the balance of adenylyl cyclase and phosphodiesterase activity.

Experiment [4] deals with naloxone-precipitated opioid withdrawal. The experiment is described as follows: Naloxone-precipitated opioid withdrawal in paclitaxel-treated mice. The class given is in vivo, mouse. Conditions: paclitaxel-treated WT mice. The procedure: Alter the last injection of morphine (on day 28 for two-phase treatments, on day 13 for coadministration treatment), we challenged WT or CB2KO mice from experiments 2, 3, and 4 with vehicle, followed 30 minutes later by naloxone (5 mg/kg i.p.) to precipitate opioid receptor-mediated withdrawal. Mice were video-recorded for subsequent scoring of withdrawal-like behaviors for a 30-minute interval after challenge with vehicle or naloxone.
Mice were video-taped, and the number of jumps was scored in 5-minute intervals for a total observation period of 30 minutes after challenge with either saline or naloxone (5 mg/kg i.p.).

The subject of experiment [5] is paclitaxel-induced mechanical allodynia. The experiment is described as follows: Paclitaxel-induced mechanical allodynia (electronic von Frey). The class given is in vivo, mouse. How it is done:
as §1, §2, §3, §4, §5
Paw withdrawal thresholds (grams) to mechanical stimulation were measured in duplicate for each paw using an electronic von Frey anesthesiometer supplied with a 90-g probe (model Alemo 2390-5; IITC, Woodland Hills, Calif.) as described previously. Mice were placed on an elevated metal mesh table and allowed to habituate under individual, inverted plastic cages to the testing platform for at least 20 minutes until exploratory behavior had ceased. Alter the habituation period, a force was applied to the midplantar region of the hind paw with a semiflexible tip connected to the anesthesiometer. Mechanical stimulation was terminated when the animal withdrew its paw, and the value of the applied force was recorded in grams. Mechanical paw withdrawal thresholds were obtained in duplicate for each paw and are reported as the mean of duplicate determinations from each animal, averaged across animals, for each group.

The test system of experiment [6] is paclitaxel-induced neuropathic pain. Conditions: 8 days once daily (i.p.) dosing or chronic infusion over 4 weeks; cited from earlier work.
The next experiment concerns the target human CB2 (Homo sapiens, UniProt P34972). The experiment is described as follows: Forskolin-stimulated cAMP accumulation (cyclase), HEK hCB2. The class given is cell-based. Further details: expressed in transfected cells.
Experiment [7] deals with preclinical inflammatory, postoperative, and neuropathic pain. Conditions: dose- and time-dependent; cited from earlier work.
Experiment [8] relates to morphine analgesia and antinociceptive tolerance. To be noted: rats, with morphine; cited from earlier work.
The subject of experiment [9] is formalin model of inflammatory pain. Conditions: coadministration; cited from earlier work.
Where [10] appears, read: WT mice, 5 mg/kg per day i.p.×12 days.
Where [11] appears, read: WT mice, AM1710 5 mg/kg per day×12 days phase I, morphine 10 mg/kg per day×12 days phase II.
[12] abbreviates: paclitaxel-treated WT mice, 5 mg/kg per day i.p.×12 days, vs vehicle.

T1 sequence (P47936 whole entry): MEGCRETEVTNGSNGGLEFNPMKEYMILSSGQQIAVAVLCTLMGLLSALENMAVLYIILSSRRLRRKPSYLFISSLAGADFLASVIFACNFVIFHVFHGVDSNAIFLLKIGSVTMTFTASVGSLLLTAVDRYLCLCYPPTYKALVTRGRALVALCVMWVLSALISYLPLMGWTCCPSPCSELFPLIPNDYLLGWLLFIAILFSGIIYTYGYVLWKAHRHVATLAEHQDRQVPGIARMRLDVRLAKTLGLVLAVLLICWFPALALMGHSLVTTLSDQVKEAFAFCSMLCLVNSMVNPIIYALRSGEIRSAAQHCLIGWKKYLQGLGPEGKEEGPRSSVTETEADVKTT
Sequence of human CB2 (P34972 whole entry): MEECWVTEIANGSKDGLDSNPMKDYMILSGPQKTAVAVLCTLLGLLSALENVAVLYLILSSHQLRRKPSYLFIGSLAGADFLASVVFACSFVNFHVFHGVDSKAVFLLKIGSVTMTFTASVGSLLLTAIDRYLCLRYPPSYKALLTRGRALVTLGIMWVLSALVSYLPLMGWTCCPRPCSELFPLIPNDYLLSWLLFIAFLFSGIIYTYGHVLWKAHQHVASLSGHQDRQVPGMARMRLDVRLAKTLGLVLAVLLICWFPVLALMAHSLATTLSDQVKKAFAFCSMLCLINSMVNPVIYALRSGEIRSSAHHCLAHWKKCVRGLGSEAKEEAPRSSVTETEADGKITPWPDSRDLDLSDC

For the compound `CN1CCCCC1Cn1cc(C(=O)c2cc([N+](=O)[O-])ccc2I)c2ccccc21` (centres unmarked) [AM1241], the μ-opioid receptor expression entry in experiment [1] was “upregulated μ-opioid receptor expression”. Further, the morphine tolerance result in experiment [2] (low dose coadministered with morphine) is listed as “reduced the morphine tolerance”. In experiment [2] (tumor-bearing rats), the “opioid-mediated antinociception, hotplate and mechanical sensitivity” value is reported as “modest enhancement of opioid-mediated antinociception”. Moreover, the “release of β-endorphin” value in the experiment on keratinocytes was “stimulated the release of the endogenous opioid β-endorphin”.

For `CCCCCCC(C)(C)c1cc(O)c2c(c1)oc(=O)c1ccc(OC)cc12` [AM1710, 3-(1,1-dimethyl-heptyl)-1-hydroxy-9-methoxy-benzo(c) chromen-6-one], the “tolerance to antiallodynic effects over repeated administration, cold” value in [3] (setting [10]) was “tolerance did not develop”. Also, in experiment [3] (setting [11]), the “development of tolerance to phase II morphine, cold” value is given as “delayed the development of tolerance to morphine”. Moreover, in experiment [3] (setting [12]), the “cold response time, chronic phase I treatment” value was “reduced the heightened cold response time”. The “time by which inhibition of forskolin-stimulated cAMP dissipated” value on mouse CB2 receptors (HEK mCB2, 1 μM) is no more than 15 min. At mouse CB2 receptors (HEK mCB2, 1 μM final concentration, 5 minutes), the “forskolin-induced cAMP levels” value is listed as “attenuated forskolin-induced cAMP levels”. Besides, the “cAMP levels in the absence of forskolin” value on mouse CB2 receptors (HEK mCB2, compound alone) was “alone did not change cAMP levels”. Further, the “cAMP levels in the absence of forskolin at 10 minutes” value at mouse CB2 receptors (HEK mCB2, compound alone, 10 minutes) is on record as “decreased cAMP levels below the basal/no forskolin level”. Besides, the “forskolin-stimulated cAMP after PTX treatment” value on mouse CB2 receptors (mCB2, 1 μM, PTX 300 ng/ml overnight) is given as “abolished the decrease in forskolin-stimulated cAMP”. Further, the “naloxone-precipitated jumps, AM1710 (I)-morphine (II) vs vehicle (I)-vehicle (II)” value in [4] is recorded as “did not differ”. For the same compound, the “number of naloxone-precipitated jumps, AM1710 (I)-morphine (II) vs vehicle (I)-morphine (II)” value in experiment [4] (AM1710 5 mg/kg i.p.×12 days, morphine 10 mg/kg i.p.×12 days) was “lower”. Besides, the “tolerance to antiallodynic effects over repeated administration, mechanical” value in [5] (setting [10]) is “tolerance did not develop”. For the same compound, the “development of tolerance to phase II morphine, mechanical” value in experiment [5] (setting [11]) was “delayed the development of tolerance to morphine”. For the same compound, the “mechanical paw withdrawal thresholds, chronic phase I treatment” value in experiment [5] (setting [12]) is given as “increased mechanical paw withdrawal thresholds”. Besides, in experiment [6], the “paclitaxel-induced neuropathic pain, tolerance and physical dependence” value is listed as “suppresses paclitaxel-induced neuropathic pain without producing tolerance or physical dependence”. For the same compound, at human CB2 (HEK hCB2), the “cAMP levels, compound alone (no forskolin)” value is on record as “alone did not change the cAMP levels” and the “duration of decrease in cAMP” value is recorded as “up to 30 minutes”. Besides, the “inhibition of forskolin-induced cAMP levels, time course” value against human CB2 (HEK hCB2, 1 μM final concentration) was “induced a delayed and persistent inhibition of forskolin-stimulated cAMP levels, starting at 10 minutes”. Further, the “inhibition of forskolin-stimulated cAMP after PTX pretreatment” value at human CB2 (HEK hCB2, 1 μM final concentration, PTX) is given as “blocked the inhibition of forskolin-stimulated cAMP”. Further, on human CB2 (HEK hCB2, with forskolin, 5 minutes, PTX), the “cAMP levels vs forskolin alone in PTX-treated cells” value is listed as “increased cAMP levels compared with forskolin alone”.

As for `CCCn1c(C)c(C(=O)c2cccc3ccccc23)c2ccccc21` [JWH015], in experiment [7], the “pain inhibition on coadministration with morphine” value is “synergistically inhibited preclinical inflammatory, postoperative, and neuropathic pain”. Besides, the “morphine analgesia and morphine antinociceptive tolerance” value in [8] was “increased morphine analgesia and morphine antinociceptive tolerance”.

In the case of `CCCC(C)(C)c1ccc2c(c1)OC(C)(C)[C@@H]1CC=C(C)C[C@@H]21` [JWH133], the opioid-sparing effects entry in experiment [9] is listed as “exhibited opioid-sparing effects”.

The record behind these values is patent publication US20190314379A1, “METHODS OF USING CANNABINOID CB2 RECEPTOR AGONIST COMPOSITIONS TO SUPPRESS AND PREVENT OPIOID TOLERANCE AND WITHDRAWAL IN A SUBJECT” (Indiana University Research and Technology Corporation, priority 2018, published 2019).
